For data set [1] the following is noted: male, cynomolgus monkey, in vivo.
Method: (§1) The protein binding in plasma was determined using a Rapid Equilibrium Dialysis Device (Thermo Scientific RED Device) or 96-well dialyzer apparatus (HTDialysis LLC). […] If required, plasma samples were pre-incubated (2 hours at 37° C.) with diisopropyl fluorophosphate (DFP) at the final concentration of 100 μM to prevent compound degradation due to amide hydrolysis. Appropriate volumes of spiked samples along with blank phosphate buffer were added to either device and incubated at 37° C. for a total of 5 hours with agitation at 500 rpm. Following incubation, an equal aliquot of dialysed matrix (plasma or buffer) is added to an equal volume of the opposite blank matrix such that the volume of buffer to plasma are equal. Mixed matrix samples were extracted by protein precipitation using acetonitrile containing the appropriate IS. Samples were then centrifuged for 10 min at 2800 rpm. Supernatants were collected and diluted and then injected on to an HPLC-MS/MS or UPLC-MS/MS system. Samples were analyzed by monitoring the appropriate parent/daughter ion transitions for the test and control compounds. The peak area ratios were used to measure test item concentrations. The fraction unbound (Afu) was determined as the ratio of the peak area ratio in buffer divided by the peak area ratio in plasma.
(§2) The PK properties of test articles were determined in male Sprague-Dawley Crl:CD(SD) rats, male Beagle dogs and male cynomolgus monkeys. Studies were conducted to the highest standards of animal welfare in accordance with national legislation and under approval of the internal animal care and use committees.
(§3) Compounds were administered by IV bolus to animals following an overnight fast. […] The formulations were administered at dose volumes ranging from 0.5-2 mL/kg. The IV dose ranged from 0.5-1 mg/kg.
(§4) Following dose administration, 8-9 serial blood samples were collected over 24 hours. Samples were mixed with anticoagulant and placed on wet ice prior to processing. Plasma was harvested following centrifugation, extracted using protein precipitation with acetonitrile containing IS. The processed supernatant was analyzed using UPLC or LC-MS/MS using specific parent/daughter ion pairs for the test article and IS. Plasma concentrations were determined using a calibration curve prepared using known concentrations of analyte. Pharmacokinetic parameters utilizing measured concentrations were calculated using Phoenix WinNonlin. The unbound plasma clearance was calculated as the ratio of the total body clearance divided by the fraction unbound in plasma.
Data set [2] concerns the target P-gp (P-glycoprotein, MDR1) (Homo sapiens (Human), UniProt P08183). As to the kind of experiment: MDCKII-MDR1 permeability, efflux ratio. To be noted: dog, MDCK-MDR1, pH 7.4, MDCKII-MDR1 cells, read-out: ER MDR1. Format: in vitro ADME. As to the method: The blood brain barrier (BBB) separates circulating blood from the extracellular fluid of the central nervous system (CNS). The passive membrane permeability (Papp) and the P-gp (P-glycoprotein) substrate efflux potential were determined using the MDCKII-MDR1 cell line as an in vitro model of the effective permeability of a compound through the BBB. A bidirectional assay (Apical to Basolateral (A→B) and Basolateral to Apical (B→A)), in the absence and in the presence of GF120918 (a P-gp inhibitor) was conducted using pre-plated MDCKII-MDR1 cells (Corning HTS Transwell-96) obtained from SOLVO Biotechnology. The assay was run at 3 μM for 90 min (minutes) in triplicate using a HBSS+12.5 mM HEPES pH 7.4 transport buffer. Following incubation of samples from donor and receiver, wells were removed and measured by LC-MS/MS. Samples were extracted by protein precipitation with acetonitrile containing an appropriate internal standard (IS) having a known mass and molecular weight. The precipitate was centrifuged for 10 min at 3000 rpm (revolutions per minute). The supernatants were then collected, diluted if necessary, and injected on to the LC-MS/MS system. […] Papp (apparent permeability expressed in nm/sec [nanometer/second]) values were calculated according to the following equation: […]
Where dQ/dt is the permeability rate, C0 is the initial concentration in the donor solution (expressed as IS ratio), A and B are the surface areas of the filter (the surface area of the cell monolayer).
Monolayer efflux ratios (ER) were derived using the following equation: […]

The conditions of data set [3]: male, Sprague-Dawley Crl:CD(SD), in vivo.
Method: as §1, §2, §3, §4
Data set [4] relates to human cryopreserved hepatocytes. Put plainly: Metabolic stability (hepatocytes). Format: in vitro ADME. To be noted: well-stirred model. From the text:
Hepatic clearance is expressed as mL/min/kg.

The test system is the same in data set [5]. As to the kind of experiment: Metabolic stability (hepatocytes). The note with it: from human CLhep. In kind it is in vitro ADME.
The conditions of data set [6]: male, Beagle, in vivo.
Method: as §1
The PK properties of test articles were determined in male Sprague-Dawley Crl:CD(SD) rats, male Beagle dogs and male cynomolgus monkeys. […]
Following dose administration, 8-9 serial blood samples were collected over 24 hours. […] The processed supernatant was analyzed using UPLC or LC-MS/MS using specific parent/daughter ion pairs for the test article and IS. Plasma concentrations were determined using a calibration curve prepared using known concentrations of analyte. Pharmacokinetic parameters utilizing measured concentrations were calculated using Phoenix WinNonlin. The unbound plasma clearance was calculated as the ratio of the total body clearance divided by the fraction unbound in plasma.
For a further data set, the system named is TNF/zVAD. The note with it: dose of 30 mg/kg, Table 2 of WO 2014/125444; cited from earlier work.
A further data set addresses GST-hRIPK1 (8-327) (Homo sapiens (Human), UniProt Q13546). As to the kind of experiment: ADP-Glo kinase assay. Format: biochemical. The note with it: 50 μM ATP. As to the method:
GST-hRIPK1 (8-327) enzyme was generated by Proteros GmbH by Baculovirus expression system.
Test compounds were diluted in DMSO and 0.1 μL of solution was dispensed to each well of a 384-well white solid microplate. The assay buffer was 50 mM HEPES pH 7.5, 50 mM NaCl, 30 mM MgCl2. The buffer was supplemented with 0.02% CHAPS, 0.01% of Pluronic F127, 0.1 mg/mL BSA and 1 mM DTT. MnCl2, 5 mM, was included in the assay buffer on the day of the experiment. The enzymatic reaction comprised 1.5 μg/mL GST-hRIPK1 (8-327) and 50 μM ATP for receptor interacting protein kinase 1 […]. 5 μL of enzyme and 5 μL of ATP were added to the plate at twice the final assay concentration and incubated at room temperature for 3 hours. Following this reaction, 10 μL of ADP-Glo reagent (Promega) was added to each well and incubated for 40 min at room temperature. This stops the kinase reaction and depletes any remaining ATP. […] The luminescence is then measured with the Envision (PerkinElmer) plate reader. Test compound inhibition was expressed as percent inhibition of internal assay controls. For concentration response curves, normalized data is fit and IC50 determined using XL-fit (IDBS) for Excel. […]
Test compound inhibition was expressed as percent inhibition of internal assay controls. For concentration response curves, normalized data is fit and IC50 determined using XL-fit (IDBS) for Excel. […]
Background: In ADP-Glo the light output rises with the ADP produced.

pIC50: −log10 of the molar value.

GST-hRIPK1 (8-327), sequence (Q13546 8-327): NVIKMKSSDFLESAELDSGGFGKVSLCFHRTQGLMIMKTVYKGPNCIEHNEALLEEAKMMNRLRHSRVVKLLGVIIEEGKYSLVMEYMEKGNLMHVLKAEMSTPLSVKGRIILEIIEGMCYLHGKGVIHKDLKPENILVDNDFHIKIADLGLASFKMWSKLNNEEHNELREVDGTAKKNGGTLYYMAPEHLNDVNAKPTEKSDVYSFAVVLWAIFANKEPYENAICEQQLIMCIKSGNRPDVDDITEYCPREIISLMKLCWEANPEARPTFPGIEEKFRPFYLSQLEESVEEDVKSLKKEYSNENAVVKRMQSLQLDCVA
P-gp (P-glycoprotein, MDR1), sequence (P08183 whole entry): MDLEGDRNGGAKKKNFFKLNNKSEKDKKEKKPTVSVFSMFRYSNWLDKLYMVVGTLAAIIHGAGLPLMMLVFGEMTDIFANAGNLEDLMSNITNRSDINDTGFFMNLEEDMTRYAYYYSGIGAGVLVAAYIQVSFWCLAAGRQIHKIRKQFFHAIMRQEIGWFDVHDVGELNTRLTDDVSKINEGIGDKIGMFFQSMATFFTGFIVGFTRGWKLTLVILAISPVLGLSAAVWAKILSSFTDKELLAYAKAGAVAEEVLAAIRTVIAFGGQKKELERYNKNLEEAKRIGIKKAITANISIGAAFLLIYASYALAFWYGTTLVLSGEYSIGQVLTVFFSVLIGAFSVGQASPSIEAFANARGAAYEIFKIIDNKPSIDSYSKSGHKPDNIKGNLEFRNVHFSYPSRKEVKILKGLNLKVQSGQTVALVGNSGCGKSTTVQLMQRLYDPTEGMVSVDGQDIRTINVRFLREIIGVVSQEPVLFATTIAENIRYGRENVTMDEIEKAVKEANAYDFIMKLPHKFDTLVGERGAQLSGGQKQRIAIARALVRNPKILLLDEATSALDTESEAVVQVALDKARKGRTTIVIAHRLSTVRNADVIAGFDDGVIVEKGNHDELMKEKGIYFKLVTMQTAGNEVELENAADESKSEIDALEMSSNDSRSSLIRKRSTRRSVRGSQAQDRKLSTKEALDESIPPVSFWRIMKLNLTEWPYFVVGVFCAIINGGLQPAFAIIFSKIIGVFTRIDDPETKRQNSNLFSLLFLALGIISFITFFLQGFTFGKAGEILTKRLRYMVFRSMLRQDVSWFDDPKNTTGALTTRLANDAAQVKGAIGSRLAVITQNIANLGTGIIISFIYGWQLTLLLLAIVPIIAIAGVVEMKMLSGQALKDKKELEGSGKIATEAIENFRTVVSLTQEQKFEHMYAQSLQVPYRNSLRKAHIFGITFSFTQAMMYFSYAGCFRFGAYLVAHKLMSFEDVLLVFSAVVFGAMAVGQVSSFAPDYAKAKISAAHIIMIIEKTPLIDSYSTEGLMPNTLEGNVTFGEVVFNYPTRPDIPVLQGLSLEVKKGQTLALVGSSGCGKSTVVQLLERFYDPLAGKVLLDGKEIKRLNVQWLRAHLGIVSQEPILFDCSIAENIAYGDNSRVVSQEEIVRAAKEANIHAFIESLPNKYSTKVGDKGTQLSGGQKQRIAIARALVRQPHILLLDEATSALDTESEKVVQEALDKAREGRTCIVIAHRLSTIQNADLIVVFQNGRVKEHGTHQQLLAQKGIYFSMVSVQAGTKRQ

Turning to `CN1C(=O)[C@@H](NC(=O)c2nnc(Cc3ccccc3)[nH]2)COc2ccccc21` [A, reference compound], the “Cyno unbound CL” value in data set [1] was 117 mL/min/kg. For the same compound, in data set [2], the efflux ratio at 90 min, 3 μM came to 6.4. Moreover, the “Rat unbound CL” value in data set [3] was 77 mL/min/kg. The “Human hepatocyte CLhep Avg” value in data set [4] was 6.8 mL/min/kg. The “clearance as % of liver blood flow” value in data set [5] was “approximately 32%”. In addition, in data set [6], the “Dog unbound CL” value was 240 mL/min/kg. In addition, the “inhibition of temperature loss” value in the data set on TNF/zVAD is reported as 93%.

In the case of `O=C(N[C@H]1COC[C@H]2CCCN2C1=O)c1nnc(Cc2ccccc2)[nH]1` [Example 65, N-[(4S,9aR)-5-oxo-octahydropyrrolo[2,1-c][1,4]oxazepin-4-yl]-5-benzyl-4H-1,2,4-triazole-3-carboxamide], the negative-log IC50 (pIC50) on GST-hRIPK1 (8-327) was less than 5.00.

What is called pIC50 is −log10 of the IC50, conventionally taken in molar units. Higher therefore signals a low IC50.

(Values after patent US9815850B2, “Compounds, compositions and methods” (Denali Therapeutics Inc., priority 2016, dated 2017).)
